Experimental data taken from patent publication US10351525B2, “Beta lactamase inhibitors” (Oxford University Innovation Limited, priority 2014, dated 2019).

Key:
SPM-1 = SPM-1 (Pseudomonas aeruginosa, UniProt Q8G9Q0); assay: MBL screening assay (IC50), SPM-1; type: biochemical
Experimental: (§1) Recombinant forms of NDM-1, NDM-1 M67C, VIM-1, VIM-2, SPM-1, IMP-1 and BcII MBLs were produced in Escherichia coli as described in J. Med. Chem. 56, 6945-6953 (2013) and Makena et al Chem MechCHem 8, 1923-9 (2013). Purified VIM-2 protein was dialysed into fresh crystallization buffer (50 mM HEPES pH 7.5, 150 mM NaCl and […], concentrated to 7.5 mg/mL and used for crystallographic analyses.
(§2) Kinetic and inhibition analyses and UV-VIS studies^16 against bacterial MBLs were performed as described by Van Berkel et al in J. Med. Chem. 56, 6945-6953 (2013) and Makena et al Chem MechCHem 8, 1923-9 (2013).
(§3) The experiments were performed by using a NovaStar microplate reader (using path length correction) and were performed at r.t. (24-25° C.). All enzymes and substrates were dissolved in the assay buffer: 50 mM HEPES-NaOH buffer (pH 7.2) supplemented with 1 μg/mL BSA (to minimize the denaturation of the enzyme), 1 μM ZnSO4 and 0.01% Triton 100. Screening was carried out against a panel of MBLs including NDM-1, VIM-1, VIM-2, SPM-1 (Sao Paulo MBL-1) and IMP-1 and the non-clinically relevant model MBL Bacillus cereus (BcII).
(§4) The kinetic values determined were the means from at least three independent measurements. […] The IC50 values were determined from the plot of activity (steady state rate) versus inhibitor concentration using the same software. […]

hHDAC = assay: Inhibition studies hHDAC; type: biochemical, human
Experimental: (§5) To investigate the selectivity of ML302/ML302F for bacterial MBLs, activity was tested against TEM-1 (a Class A SBL), PBP-5 (penicillin-binding protein 5 or dacA) and PBP-6 (penicillin-binding protein 6, or dacC) from E. coli, hHAT (human histone acetyltransferase) and hHDAC (human histone deacetylase). TEM-1, PBP-5 and -6 and hHAT are known to be inhibited by rhodanines. Selectively against hACE-2 (Angiotensin converting enzyme 2) and hHAGH (Hydroxyacylglutathione hydrolase, human Glyoxylase II) was also tested.
(§6) The inhibition analyses for human histone acetyltransferases (HAT), HDAC hHDAC (human histone deacetylase), hACE-2 (Angiotensin converting enzyme 2) and hHAGH (Hydroxyacylglutathione hydrolase, human Glyoxylase II) were performed using the commercially available HAT Assay Kit (Active Motif, catalogue No. 56100 (2009)), hHDAC (Active Motif, catalogue No. 56200 (2013)), hACE-2 (ACE-2 (R&D Systems) and hHAGH ((R&D Systems).

hACE-2 = biological target: T1, hACE-2 (Homo sapiens, UniProt Q9BYF1); assay: hACE 2 assay; type: biochemical; settings: for remaining activity at 100 µM: read-out: RA (residual activity)
T1 construct: purchased R&D Systems 933-ZN
Experimental: as §5, §6
hACE 2 Assay (R&D systems):
• Assay Buffer: 75 mM Tris, 1 M NaCl, pH 7.5 • Recombinant Human ACE-2 (rhACE-2) (Catalog #933-ZN) • Substrate: MCA-Tyr-Val-Ala-Asp-Ala-Pro-Lys(DNP)-OH (Catalog # ES007), 10 mM stock in DMSO • F16 Black Maxisorp Plate (Nunc, Catalog #475515) • Fluorescent Plate Reader (Model: SpectraMax Gemini EM by Molecular Devices) or equivalent Assay: 1. Dilute rhACE-2 to 0.2 ng/μL in Assay Buffer. 2. Dilute Substrate to 40 μM in Assay Buffer. 3. Load in a black well plate 50 μL of […], and start the reaction by adding 50 μL of 40 μM Substrate. As a control load […] Substrate with 50 μL of Assay Buffer. 4. Read at excitation and emission wavelengths of 320 nm and 405 nm (top read), respectively in kinetic mode for 5 minutes. 5.

NDM-1 = biological target: T2, NDM-1 (Klebsiella pneumoniae, UniProt C7C422); assay: biochemical
T2 construct: made in house; host or cells: Escherichia coli
Experimental: as §1, §2, §3, §4

hGlyoxylase II = biological target: T3, hGlyoxylase II (Homo sapiens, UniProt Q16775); assay: hHAGH (human Glyoxylase II) assay; type: biochemical
T3 construct: purchased R&D Systems 5944-GO
Experimental: as §5, §6
• Assay Buffer: 50 mM Tris, 250 mM NaCl, pH 7.5 • Recombinant Human Glyoxalase II (rhGlyoxalase II) (Catalog #5944-GO) • Substrate: S-Lactoylglutathione (Sigma, Catalog # L7140), 100 mM stock in deionized water • 5, 5′-dithiobis(2-nitrobenzoic acid) (DTNB) (Sigma, Catalog # D8130), 10 mM stock in DMSO • 96-well Clear Plate (Costar, Catalog #92592) • Plate Reader (Model: SpectraMax Plus by Molecular Devices) or equivalent Assay: 1. Dilute rhGlyoxalase II to 0.4 ng/μL in Assay Buffer. 2. Dilute Substrate to 2 mM in Assay Buffer with 400 IJM DTNB to form Substrate Mixture. 3. Load 50 μL of 0.4 ng/μL rhGlyoxalase II into a plate and start the reaction by loading 50 μL of Substrate Mixture. Include a Substrate Blank containing 50 μL of Assay Buffer and 50 μL of Substrate Mixture. 4. Read at 405 nm (absorbance) in kinetic mode for 5 minutes. 5. Calculate specific activity:
[formula] [formula] [formula] [formula] Note: the output of many spectrophotometers is in mOD. Final Assay Conditions Per Well: rhGlyoxalase II: […] S-Lactoylglutathione: 1 mM DTNB: 200 μM

SMILES	IC50 (SPM-1) [nM]	Inhibition verdict (hHDAC)	RA (residual activity) (hHDAC) [%]	RA (residual activity) (hACE-2; 100 μM)	remaining activity at 100 µM (hACE-2; 100 μM) [%]	IC50 (NDM-1) [nM]	Inhibition verdict (hGlyoxylase II)	RA (residual activity) (hGlyoxylase II) [%]	Inhibition verdict (hACE-2)
CN1CCN(NC(=O)CN2C(=O)C(=Cc3c(Cl)ccc(Cl)c3Cl)SC2=S)CC1 (mixture of isomers) [ML302, N-(4-Methylpiperazin-1-yl)-2-(4-oxo-2-thioxo-5-(2,3,6-trichlorobenzylidene)thiazolidin-3-yl)acetamide]	1320 ± 620	N.I.	108 ± 3	73 ± 9 ^ %	~75	9440 ± 1440	N.I.	98 ± 3	
O=C(O)C(S)=Cc1c(Cl)ccc(Cl)c1Cl (racemic) [ML302F, 2-Mercapto-3-(2,3,6-trichlorophenyl)acrylic acid]	1760 ± 510	N.I.	116 ± 7		99 ± 4	1050 ± 300	N.I.	95 ± 6	N.I.
